This is an account of results in EP0680339B1, “ECTOPARASITICIDAL FORMULATION” (priority 1993, dated 1994).

A short description of series [1]: Example 6, degree of translocation: diazinon levels in wool and skin scrapings. In kind it is in vivo, sheep. The following applies: for DIAZINON (PPM) - WHOLE WOLL BELLY-LINE MEAN / DIAZINON (PPM) - WHOLE WOLL MIDLINE MEAN: Example 6 formulation, 3mL per kg. The protocol:
A 3 year old merino was shorn, weighed and treated immediately with the diazinon spray-on. It had not received any insecticide treatment for 12 months. The sheep weighed 37 kg and was treated with 110mL of the product. A wide band was applied from high on the neck, behind the ears, to the butt of the tail at a dosage rate of 3mL per kg bodyweight.
The animal was hand restrained during treatment and placed under cover in a pen with mesh floor and sides for the duration of the trial.
During and after treatment, the sheep had no contact with other treated animals and was not exposed to any rain.
On advice from the State Chemistry Laboratory, Department of Agriculture, Victoria, approximately 2cm square scrapings of wool and skin were taken as follows:
The values (PPM diazinon) are reported on a whole wool basis.
The approximate concentration in wool grease can be calculated on the basis of the average wool grease content of the wool is 18.4% w/w ie., multiply the individual results by a factor of 5.4.

Another series concerns sheep body louse D. ovis. The series is described as follows: Example 3, varying concentration of active: lice counts on sheep. In kind it is in vivo, Damalinia ovis. The method, then:
Testing for ectoparasite infestation was carried out by counting the number of parasites present in 20 partings taken on each side of the sheep (40 partings in total).
In order to determine the minimum effective concentration of active agent possible upon application of 150 mL/50 kg sheep, the following formulations were prepared: […]
For each of Examples 3A-E, the treatments were applied immediately after shearing along the backline in 4-6 strips (depending on the volume to be applied. Details are as follows:
Treatments were applied using the NZ Protector dial-a-dose drench/pour-on gun.
Once treated, each group was penned separately in electrified paddocks where they were kept for the duration of the trial.
Lice counts were performed pre-shearing 7, 14, 21, 28, 35 and 42 days after treatment using the 20 partings per side technique.
Percentage reduction in lice counts was calculated using the change in lice counts for the control group as a correction factor, using the formula given in example 1.

Structures are written as SMILES.

Consider `CCOP(=S)(OCC)Oc1cc(C)nc(C(C)C)n1` [Diazinon], for which, in series [1] (1 day post treatment), the “DIAZINON (PPM) - WHOLE WOLL (MEAN VALUES) BELLY-LINE LEFT” value was 407 PPM, the “DIAZINON (PPM) - WHOLE WOLL (MEAN VALUES) BELLY-LINE RIGHT” value was 190 PPM, the “DIAZINON (PPM) - WHOLE WOLL (MEAN VALUES) MIDLINE LEFT” value (shortened to “DIAZINON … (MEAN VALUES) MIDLINE LEFT”) was 808 PPM and the “DIAZINON (PPM) - WHOLE WOLL (MEAN VALUES) MIDLINE RIGHT” value (“DIAZINON … (MEAN VALUES) MIDLINE RIGHT” for short) worked out at 330 PPM. Also, in series [1] (1 day post treatment), the “DIAZINON (PPM) - WHOLE WOLL BELLY-LINE MEAN” value came to 298 PPM and the “DIAZINON (PPM) - WHOLE WOLL MIDLINE MEAN” value was 569 PPM. In addition, in series [1] (3 days post treatment), the “DIAZINON (PPM) - WHOLE WOLL (MEAN VALUES) BELLY-LINE LEFT” value was found to be 185 PPM, the “DIAZINON (PPM) - WHOLE WOLL (MEAN VALUES) BELLY-LINE RIGHT” value came out at 112 PPM, the “DIAZINON … (MEAN VALUES) MIDLINE LEFT” value was 496 PPM and the “DIAZINON … (MEAN VALUES) MIDLINE RIGHT” value amounted to 323 PPM. Moreover, in series [1] (3 days post treatment), the “DIAZINON (PPM) - WHOLE WOLL BELLY-LINE MEAN” value was 148.5 PPM and the “DIAZINON (PPM) - WHOLE WOLL MIDLINE MEAN” value is 410 PPM. Also, in series [1] (7 days post treatment), the “DIAZINON (PPM) - WHOLE WOLL (MEAN VALUES) BELLY-LINE LEFT” value was determined as 287 PPM, the “DIAZINON (PPM) - WHOLE WOLL (MEAN VALUES) BELLY-LINE RIGHT” value is listed as 216 PPM, the “DIAZINON … (MEAN VALUES) MIDLINE LEFT” value is 503 PPM and the “DIAZINON … (MEAN VALUES) MIDLINE RIGHT” value was 237 PPM. Also, in series [1] (7 days post treatment), the “DIAZINON (PPM) - WHOLE WOLL BELLY-LINE MEAN” value is reported as 251.2 PPM and the “DIAZINON (PPM) - WHOLE WOLL MIDLINE MEAN” value amounted to 370 PPM. For the same compound, the “diazinon in whole wool, belly-line right rump” value in series [1] (Day 1) is listed as 53 PPM. Further, the “diazinon in the wool grease, belly-line right rump” value in series [1] (Day 1, whole wool value multiplied by 5.4) turned out to be 286 PPM. The “eradication of the sheep body louse D. ovis” value with sheep body louse D. ovis (10 mg/kg (0.33% w/w)) is “failed to eradicate”. Moreover, the “eradication of the sheep body louse D. ovis” value in the series with sheep body louse D. ovis (15 mg/kg (0.5% w/w)) is “failed to eradicate”.
